According to patent publication US20080102497A1, “ENZYMATIC HYDROLYSIS OF STARCH” (priority 2006, published 2008):
Read-outs that look alike come from different tables or passages of the source.

Columns and labels:
[1] = tested on: glucoamylase from Rhizopus sp.; assay: hydrolysis of raw corn starch, reducing sugar by DNSA; type: biochemical; conditions: for Relative Activity: raw corn starch, pH 5.3, 37° C., 20 min
Source text: (§1) The α-amylase from Aspergillus oryzae and the glucoamylase from Rhizopus sp.

[2] = target: T1, α-amylase from Aspergillus oryzae (Aspergillus oryzae, UniProt P0C1B3); assay: as above; type: biochemical; conditions: for Relative Activity: raw corn starch, pH 5.3, 37° C., 20 min
Source text: as §1

[3] = target: α-amylase from Bacillus amyloliquefaciens (Bacillus amyloliquefaciens, UniProt P00692); assay: as above; type: biochemical; conditions: for Relative Activity: raw corn starch, pH 5.3, 37° C., 20 min
Protocol: Thereafter, 40 μl of each pre-incubation solution was added to 15 mg raw corn starch, and the reaction mixture incubated at 37° C. for 20 minutes. The control reaction mixture contained substrate, enzyme, and buffer but no manganese ion. The starch hydrolysis reaction was stopped by combining the reaction mixture with a solution containing DNSA and heating for 30 min at 85° C. The absorbance of the control and test samples was measured at 562 nm to monitor the amount of reducing sugar in each sample.

[4] = target: T2, β-amylase Type II-B from barley (Hordeum vulgare, UniProt P16098); assay: hydrolysis of raw corn starch or soluble starch; type: biochemical; conditions: for % Relative Activity: pH 5.3, 37° C., 20 min
T2 construct: purchased Sigma Sigma-7130
Protocol: Each of the buffered enzyme solutions was separately added to 15 mg raw corn starch or 0.6 mg soluble starch, and the reaction mixtures incubated at 37° C. for 20 minutes. The control reaction mixture contained substrate, enzyme, and buffer but no manganese ion. The starch hydrolysis reaction was stopped by combining the reaction mixture with a solution containing DNSA and heating for 30 min at 85° C. The absorbance of the control and test samples was measured at 562 nm to monitor the amount of reducing sugar in each sample.

[5] = target: α-amylase from Bacillus licheniformis (Bacillus licheniformis, UniProt P06278); assay: hydrolysis of cooked starches from different botanical sources; type: biochemical; conditions: pH 5.2, 37° C., 10 min
β-amylase from barley = β-amylase from barley (Hordeum vulgare, UniProt P16098); assay: as above; type: biochemical; conditions: pH 5.2, 37° C., 10 min
Protocol: The control reaction mixture contained enzyme, buffer, and starch but no manganese ion. The starch hydrolysis reaction was stopped by combining the reaction mixture with 3,5 dinitrosalicylic acid (DNSA) and heating for 30 min at 85° C. The absorbance of the control and test samples was measured at 562 nm to monitor the amount of reducing sugar in each sample.

[6] = target: T1, α-amylase from Aspergillus oryzae; assay: hydrolysis of cooked dent corn starch; type: biochemical; conditions: cooked dent corn starch 0.5%, pH 5.2, 37° C., 10 min
[7] = target: T3, α-amylase from porcine pancreas (Sus scrofa, UniProt P00690); assay: hydrolysis of cooked dent corn starch; type: biochemical; conditions: cooked dent corn starch 0.5%, pH 5.2, 37° C., 10 min
T3 construct: the α-amylase from porcine pancreas; from tissue; host or cells: porcine pancreas
T3 sequence (P00690 16-511): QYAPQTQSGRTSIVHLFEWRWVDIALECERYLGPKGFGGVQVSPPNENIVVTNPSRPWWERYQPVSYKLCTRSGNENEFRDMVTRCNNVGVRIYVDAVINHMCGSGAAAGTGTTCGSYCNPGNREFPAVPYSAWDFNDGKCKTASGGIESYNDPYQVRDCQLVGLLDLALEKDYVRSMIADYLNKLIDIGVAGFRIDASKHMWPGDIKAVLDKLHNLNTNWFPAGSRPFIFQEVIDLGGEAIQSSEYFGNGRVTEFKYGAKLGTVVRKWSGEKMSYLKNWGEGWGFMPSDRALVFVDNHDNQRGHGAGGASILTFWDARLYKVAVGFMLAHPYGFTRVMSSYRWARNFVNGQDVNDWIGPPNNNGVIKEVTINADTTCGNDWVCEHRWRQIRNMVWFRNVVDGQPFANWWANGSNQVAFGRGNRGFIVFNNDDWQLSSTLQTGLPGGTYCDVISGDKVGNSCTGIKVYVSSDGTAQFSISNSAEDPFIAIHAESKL

[8] = target: glucoamylase from Aspergillus Niger (Aspergillus niger, UniProt P69328); conditions: cooked dent corn starch 0.5%, pH 5.2, 37° C., 10 min
Protocol: The separate reaction mixtures were incubated at 37° C. for 10 minutes. The control reaction mixtures contained enzyme, buffer, and starch but no manganese ion. The starch hydrolysis reaction was stopped by combining the reaction mixture with a solution containing DNSA and heating for 30 min at 85° C. The absorbance of the control and test samples was measured at 562 nm to monitor the amount of reducing sugar in each sample.

[9] = 0.01 mM Mn^++, cooked potato starch 0.5%
[10] = 0.01 mM Mn^++, cooked rice starch 0.5%
[11] = 0.01 mM Mn^++, cooked soluble potato starch 0.5%
[12] = 0.1 mM Mn^++, cooked barley starch 0.5%
[13] = 0.1 mM Mn^++, cooked pea starch 0.5%
[14] = 0.1 mM Mn^++, cooked potato starch 0.5%
[15] = 0.1 mM Mn^++, cooked rice starch 0.5%
[16] = 0.1 mM Mn^++, cooked soluble potato starch 0.5%
[17] = 0.1 mM Mn^++, cooked tapioca starch 0.5%
[18] = 0.1 mM Mn^++, cooked wheat starch 0.5%
[19] = 1 mM Mn^++, cooked pea starch 0.5%
[20] = 1 mM Mn^++, cooked potato starch 0.5%
[21] = 1 mM Mn^++, cooked rice starch 0.5%
[22] = 1 mM Mn^++, cooked soluble potato starch 0.5%
[23] = 1 mM Mn^++, cooked tapioca starch 0.5%
[24] = 1 mM Mn^++, cooked wheat starch 0.5%
[25] = 10 mM Mn^++, cooked barley starch 0.5%
[26] = 10 mM Mn^++, cooked pea starch 0.5%
[27] = 10 mM Mn^++, cooked potato starch 0.5%
[28] = 10 mM Mn^++, cooked rice starch 0.5%
[29] = 10 mM Mn^++, cooked wheat starch 0.5%

Sequence of glucoamylase from Aspergillus Niger (P69328 25-640): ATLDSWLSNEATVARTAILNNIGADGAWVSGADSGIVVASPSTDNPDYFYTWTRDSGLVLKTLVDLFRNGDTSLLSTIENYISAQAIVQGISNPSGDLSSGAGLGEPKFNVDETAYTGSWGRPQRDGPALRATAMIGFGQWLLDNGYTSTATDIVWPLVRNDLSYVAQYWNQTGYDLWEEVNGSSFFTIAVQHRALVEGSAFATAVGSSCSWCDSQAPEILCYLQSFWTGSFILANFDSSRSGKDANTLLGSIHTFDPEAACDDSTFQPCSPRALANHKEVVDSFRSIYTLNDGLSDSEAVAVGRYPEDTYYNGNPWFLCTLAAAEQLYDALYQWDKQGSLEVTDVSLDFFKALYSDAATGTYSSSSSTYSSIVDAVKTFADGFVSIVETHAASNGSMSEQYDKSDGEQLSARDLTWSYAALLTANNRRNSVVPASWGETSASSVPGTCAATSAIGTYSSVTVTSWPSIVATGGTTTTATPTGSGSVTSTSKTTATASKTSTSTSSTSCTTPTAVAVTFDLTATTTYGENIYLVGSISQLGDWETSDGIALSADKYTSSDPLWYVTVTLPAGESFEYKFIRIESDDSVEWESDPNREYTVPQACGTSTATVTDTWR
Sequence of α-amylase from Bacillus licheniformis (P06278 30-512): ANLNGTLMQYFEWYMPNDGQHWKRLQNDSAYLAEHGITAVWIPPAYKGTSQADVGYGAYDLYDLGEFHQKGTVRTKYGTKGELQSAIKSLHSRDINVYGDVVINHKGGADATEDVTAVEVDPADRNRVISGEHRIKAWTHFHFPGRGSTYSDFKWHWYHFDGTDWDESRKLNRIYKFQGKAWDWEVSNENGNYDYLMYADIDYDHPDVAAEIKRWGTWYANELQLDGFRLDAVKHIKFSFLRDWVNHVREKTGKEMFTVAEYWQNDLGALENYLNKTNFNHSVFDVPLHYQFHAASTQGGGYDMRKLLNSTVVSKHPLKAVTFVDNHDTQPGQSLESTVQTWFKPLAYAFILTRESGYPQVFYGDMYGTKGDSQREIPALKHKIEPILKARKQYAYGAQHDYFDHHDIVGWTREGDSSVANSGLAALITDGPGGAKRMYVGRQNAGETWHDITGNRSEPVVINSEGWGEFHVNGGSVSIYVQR
T2 sequence (P16098 whole entry): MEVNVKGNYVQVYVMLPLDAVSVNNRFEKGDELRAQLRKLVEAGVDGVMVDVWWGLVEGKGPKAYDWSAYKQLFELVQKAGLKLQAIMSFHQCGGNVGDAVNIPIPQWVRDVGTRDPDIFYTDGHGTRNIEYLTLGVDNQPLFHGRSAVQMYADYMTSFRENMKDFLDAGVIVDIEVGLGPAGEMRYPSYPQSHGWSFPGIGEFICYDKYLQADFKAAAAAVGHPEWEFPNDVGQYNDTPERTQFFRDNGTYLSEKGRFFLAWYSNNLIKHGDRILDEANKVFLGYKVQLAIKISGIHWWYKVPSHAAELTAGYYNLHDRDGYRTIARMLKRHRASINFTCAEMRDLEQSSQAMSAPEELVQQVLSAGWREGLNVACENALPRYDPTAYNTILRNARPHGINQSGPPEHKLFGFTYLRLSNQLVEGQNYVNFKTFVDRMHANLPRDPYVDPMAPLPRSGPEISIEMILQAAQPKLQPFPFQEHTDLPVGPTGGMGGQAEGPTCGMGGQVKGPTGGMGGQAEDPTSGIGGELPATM
Sequence of β-amylase from barley (P16098 whole entry): as above
Sequence of α-amylase from Bacillus amyloliquefaciens (P00692 32-514): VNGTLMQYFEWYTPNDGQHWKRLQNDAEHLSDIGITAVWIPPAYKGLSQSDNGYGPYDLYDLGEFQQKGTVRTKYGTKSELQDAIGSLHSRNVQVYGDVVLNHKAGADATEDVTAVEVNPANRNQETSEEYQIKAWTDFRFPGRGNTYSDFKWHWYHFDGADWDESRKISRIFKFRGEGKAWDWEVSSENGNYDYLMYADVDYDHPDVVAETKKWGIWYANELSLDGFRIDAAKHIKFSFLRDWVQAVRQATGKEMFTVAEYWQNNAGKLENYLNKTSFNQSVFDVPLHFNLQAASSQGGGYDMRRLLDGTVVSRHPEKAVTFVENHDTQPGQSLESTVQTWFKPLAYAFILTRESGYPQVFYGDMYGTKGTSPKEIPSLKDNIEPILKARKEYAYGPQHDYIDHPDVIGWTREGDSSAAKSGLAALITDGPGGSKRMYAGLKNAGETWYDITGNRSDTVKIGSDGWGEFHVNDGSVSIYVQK

## [Mn+2] [Mn^++, manganese ions]
[1]; 0.01 mM Mn^++
  Relative Activity: 105.0%
[1]; 0.1 mM Mn^++
  Relative Activity: 119.2%
[1]; 1 mM Mn^++
  Relative Activity: 133.5%
[1]; 10 mM Mn^++
  Relative Activity: 162.6%
[1]; summary of Table 3
  effect on hydrolysis of raw corn starch (in words): enhances the hydrolysis of raw corn starch
[2]; 0.01 mM Mn^++
  Relative Activity: 106.6%
[2]; 0.1 mM Mn^++
  Relative Activity: 125.5%
[2]; 1 mM Mn^++
  Relative Activity: 136.7%
[2]; 10 mM Mn^++
  Relative Activity: 155.6%
[2]; summary of Table 3
  effect on hydrolysis of raw corn starch (in words): enhances the hydrolysis of raw corn starch
[3]; 0.01 mM Mn^++
  Relative Activity: 101.5%
[3]; 0.1 mM Mn^++
  Relative Activity: 115.7%
[3]; 1 mM Mn^++
  Relative Activity: 119.1%
[3]; 10 mM Mn^++
  Relative Activity: 111.7%
[3]; summary of Table 4
  effect on hydrolysis of raw corn starch (in words): enhances the hydrolysis of raw corn starch
[4]; 0.01 mM Mn^++, raw corn starch
  % Relative Activity: 99.5%
[4]; 0.01 mM Mn^++, soluble starch
  % Relative Activity: 112.5%
[4]; 0.1 mM Mn^++, raw corn starch
  % Relative Activity: 118.4%
[4]; 0.1 mM Mn^++, soluble starch
  % Relative Activity: 119.2%
[4]; 1 mM Mn^++, raw corn starch
  % Relative Activity: 133.3%
[4]; 1 mM Mn^++, soluble starch
  % Relative Activity: 155.7%
[4]; 10 mM Mn^++, raw corn starch
  % Relative Activity: 152.2%
[4]; 10 mM Mn^++, soluble starch
  % Relative Activity: 157.3%
[4]; raw corn starch and soluble starch
  effect on hydrolysis of starch (in words): enhances the hydrolysis of both raw corn starch and soluble starch
[5]; [9]
  Relative Activity: 109.9%
[5]; [10]
  Relative Activity: 115.5%
[5]; [11]
  Relative Activity: 118.3%
[5]; [12]
  Relative Activity: 129.2%
[5]; [13]
  Relative Activity: 129.5%
[5]; [14]
  Relative Activity: 117.5%
[5]; [15]
  Relative Activity: 126.0%
[5]; [16]
  Relative Activity: 147.6%
[5]; [17]
  Relative Activity: 119.2%
[5]; [18]
  Relative Activity: 118.2%
[5]; [19]
  Relative Activity: 143.9%
[5]; [20]
  Relative Activity: 128.7%
[5]; [21]
  Relative Activity: 129.6%
[5]; [22]
  Relative Activity: 142.0%
[5]; [23]
  Relative Activity: 121.5%
[5]; [24]
  Relative Activity: 153.0%
[5]; [25]
  Relative Activity: 142.2%
[5]; [26]
  Relative Activity: 182.3%
[5]; [27]
  Relative Activity: 160.2%
[5]; [28]
  Relative Activity: 157.7%
[5]; [29]
  Relative Activity: 142.1%
β-amylase from barley; 0.01 mM Mn^++, cooked barley starch 0.5%
  Relative Activity: 115.2%
β-amylase from barley; 0.01 mM Mn^++, cooked pea starch 0.5%
  Relative Activity: 108.1%
β-amylase from barley; [9]
  Relative Activity: 109.5%
β-amylase from barley; [10]
  Relative Activity: 107.8%
β-amylase from barley; [11]
  Relative Activity: 117.4%
β-amylase from barley; 0.01 mM Mn^++, cooked tapioca starch 0.5%
  Relative Activity: 111.3%
β-amylase from barley; 0.01 mM Mn^++, cooked wheat starch 0.5%
  Relative Activity: 120.2%
β-amylase from barley; [12]
  Relative Activity: 121.1%
β-amylase from barley; [13]
  Relative Activity: 122.3%
β-amylase from barley; [14]
  Relative Activity: 117.5%
β-amylase from barley; [15]
  Relative Activity: 123.9%
β-amylase from barley; [16]
  Relative Activity: 136.0%
β-amylase from barley; [17]
  Relative Activity: 122.1%
β-amylase from barley; [18]
  Relative Activity: 141.9%
β-amylase from barley; 1 mM Mn^++, cooked barley starch 0.5%
  Relative Activity: 154.0%
β-amylase from barley; [19]
  Relative Activity: 139.2%
β-amylase from barley; [20]
  Relative Activity: 135.4%
β-amylase from barley; [21]
  Relative Activity: 138.1%
β-amylase from barley; [22]
  Relative Activity: 154.1%
β-amylase from barley; [23]
  Relative Activity: 135.6%
β-amylase from barley; [24]
  Relative Activity: 151.9%
β-amylase from barley; [25]
  Relative Activity: 197.5%
β-amylase from barley; [26]
  Relative Activity: 253.4%
β-amylase from barley; [27]
  Relative Activity: 175.1%
β-amylase from barley; [28]
  Relative Activity: 173.4%
β-amylase from barley; 10 mM Mn^++, cooked soluble potato starch 0.5%
  Relative Activity: 165.6%
β-amylase from barley; 10 mM Mn^++, cooked tapioca starch 0.5%
  Relative Activity: 180.5%
β-amylase from barley; [29]
  Relative Activity: 221.1%
[6]; 0.01 mM Mn^++
  Relative Activity: 126.9%
[6]; 0.1 mM Mn^++
  Relative Activity: 131.2%
[6]; 1 mM Mn^++
  Relative Activity: 135.2%
[7]; 0.01 mM Mn^++
  Relative Activity: 114.5%
[7]; 0.1 mM Mn^++
  Relative Activity: 132.4%
[7]; 1 mM Mn^++
  Relative Activity: 144.2%
[7]; 10 mM Mn^++
  Relative Activity: 177.7%
[8]; 0.01 mM Mn^++
  Relative Activity: 113.3%
[8]; 0.1 mM Mn^++
  Relative Activity: 126.1%
[8]; 1 mM Mn^++
  Relative Activity: 148.4%
[8]; 10 mM Mn^++
  Relative Activity: 186.9%
